The assay relates to thrombocyte aggregation. Kind of assay: Born test: inhibition of the second phase of adrenalin induced thrombocyte aggregation in platelet-rich plasma (PRP). In kind it is cell-based, human. Conditions: for inhibition at 50 µM: Homo sapiens, at 5 × 10^-5 m, induced by 5×10^-6 m adrenalin, read-out: Percent Inhibition Of Thrombocyte Aggregation. The source says: In a series of determinations utilizing the Born test, venous blood from metabolically healthy persons was mixed with sodium citrate in a ratio of 9:1 and the erythrocytes precipitated by centrifuging at 150 g. The filtrate is enriched in thrombocytes and this filtrate is designated as platelet-rich plasma (PRP). One aliquot of the PRP is placed in the cuvette of an aggregometer (Universal Aggregometer, manufactured by Braun Melsungen, West Germany) and stirred with a magnetic stirrer. The substance to be tested is added in the form of an aqueous solution at a pH of about 7. Changes in the light transmission of the suspension are continuously recorded. After spontaneous aggregation ceases, further aggregation is induced by the addition of 5×10^-6 m adrenalin, forming larger thrombocyte aggregates and increasing the light transmission through the suspension.
The adrenalin induced aggregation takes place in two phases, i.e., the light transmission initially increases, then stagnates temporarily, and then increases again. Only the second phase of the aggregation can be influenced by aggregation inhibitors. For an evaluation of the results there is first established, in a control experiment using no test compound, the angle of the second aggregation phase against the horizontal for adrenalin induced aggregation and this is designated as 0% inhibition. Utilizing the same PRP, the test compound is added and aggregation is induced with adrenalin, and the course of aggregation continuously recorded. The angle of the second aggregation phase against the horizontal is again determined and the relationship of this angle against the angle determined in the control experiment yields the percent inhibition of the second phase of the thrombocyte aggregation.
The standard material "Colfarit" (acetylsalicylic acid) yields 100% inhibition at a concentration of 10^-4 m and 0% inhibition at a concentration of 5×10^-5 m. At the latter concentration the inventive compounds yielded the following results: […]

Turning to `O=C(O)COc1ccc(CCNS(=O)(=O)c2ccc(Cl)cc2)cc1` [4-[2-(4-chlorobenzenesulphonylamino)-ethyl]-phenoxyacetic acid], the inhibition at 50 µM stood at 100%.

For the compound `CC(CO)NC(=O)COc1ccc(CCNS(=O)(=O)c2ccccc2)cc1` (stereo not drawn) [4-[2-(Benzenesulphonylamino)-ethyl]-phenoxyacetic acid 1-hydroxy-2-propylamide], the inhibition at 50 µM stood at 10%.

In the case of `Cc1ccc(S(=O)(=O)NCCc2ccc(OCC(=O)O)cc2)cc1` [4-[2-(p-toluenesulphonylamino)-ethyl]-phenoxyacetic acid], the inhibition at 50 µM was 100%.

In the case of `CC(=O)Oc1ccccc1C(=O)O` [Colfarit, acetylsalicylic acid, reference compound], the inhibition at 50 µM came out at 0%. Under “at 10^-4 m, induced by adrenalin”, the “inhibition of thrombocyte aggregation” value is listed as 100%.

Take `CC(C)OC(=O)COc1ccc(CCNS(=O)(=O)c2ccccc2)cc1` [Isopropyl 4-[2-(benzenesulphonylamino)-ethyl]-phenoxyacetate]: the inhibition at 50 µM worked out at 100%.

As to `O=C(O)COc1ccc(CNS(=O)(=O)c2ccccc2)cc1` [4-(Benzenesulphonylaminomethyl)-phenoxyacetic acid], the inhibition at 50 µM is 20%.

`CC(C)(Oc1ccc(CCNS(=O)(=O)c2ccc(Cl)cc2)cc1)C(=O)O` [2-{4-[2-(4-Chlorobenzenesulphonylamino)-ethyl]-phenoxy}-2-methylpropionic acid]: the inhibition at 50 µM was found to be 100%.

On to `CCOC(=O)CCNC(=O)COc1ccc(CCNS(=O)(=O)c2ccccc2)cc1` [4-[2-(Benzenesulphonylamino)-ethyl]-phenoxyacetic acid 2-ethoxycarbonylethylamide], for which the inhibition at 50 µM worked out at 100%.

Turning to `O=C(O)COc1ccc(CCNS(=O)(=O)c2ccc(F)cc2)cc1` [4-[2-(4-Fluorobenzenesulphonylamino)-ethyl]-phenoxyacetic acid], the inhibition at 50 µM came to 100%.

Regarding `CC(C)(Oc1ccc(CCNS(=O)(=O)c2ccccc2)cc1)C(=O)O` [2-{4-[2-(Benzenesulphonylamino)-ethyl]-phenoxy}-2-methylpropionic acid], the inhibition at 50 µM is 20%.

Turning to `O=C(O)COc1ccc(CCNS(=O)(=O)c2ccccc2)cc1` [4-[2-(Benzenesulphonylamino)-ethyl]-phenoxyacetic acid], the inhibition at 50 µM worked out at 100%.

`O=C(O)COc1ccc(CCCNS(=O)(=O)c2ccccc2)cc1` [4-[3-(Benzenesulphonylamino)-propyl]-phenoxyacetic acid]: the inhibition at 50 µM came to 100%.

As for `O=C(O)COc1ccc(CCNS(=O)(=O)c2cccc3ccccc23)cc1` [4-[2-(1-naphthalenesulphonylamino)-ethyl]-phenoxyacetic acid], the inhibition at 50 µM was 100%.

With `CC(=O)c1ccc(S(=O)(=O)NCCc2ccc(OCC(=O)O)cc2)cc1` [4-[2-(4-acetylbenzenesulphonylamino)-ethyl]-phenoxyacetic acid], the inhibition at 50 µM is 100%.

For orientation: inhibition means the share of the control response that was lost under treatment.

For the origin of these results see patent publication US4258058A, “Phenoxyalkylcarboxylic acid compounds and thrombocyte-aggregation inhibition” (Boehringer Mannheim GmbH, priority 1978, dated 1981).
